Reference: US9650365B2 (UNIVERSITY OF CONNECTICUT, priority 2014, dated 2017)
Read-outs that look alike come from different tables or passages of the source.

Columns and labels:
[1] = tested on: Hh signaling (Gli1 mRNA) in ASZ cells; experiment: Down-regulation of endogenous Gli1 mRNA in ASZ cells; type: cell-based, murine; details: Mus musculus
Procedure, shortened: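 Hh pathway activated in C3H10T1/2 cells with exogenous agonist (recombinant Hh ligand or small molecule) alongside inhibitor; Gli1 mRNA measured by qPCR. Concentration-dependent Gli1 reduction also assessed in murine BCC ASZ cells; values mean±SEM, ≥2 experiments in triplicate.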

[2] = tested on: MERP MB cells (Math1-Cre-ER; Ptc fl/fl medulloblastoma); experiment: Anti-proliferation in primary MERP MB cells; type: cell-based, mice; details: Mus musculus, 48 h, read-out: GI50 (μM) MERP MB, 48 hr incubation
Procedure: General Information. Protocols for general cell culture, qPCR and Hh inhibition in C3H10T1/2 and ASZ cells are as previously described.^28 Protocols for the initiation and growth of Math1-Cre-ER; Ptc^fl/fl medulloblastoma tumors, isolation and in vitro culture of MERP MB cells, as wells as the anti-proliferation and qPCR studies performed in these cells were as previously described.^a Sonic Hedgehog (C25II) recombinant mouse protein was purchased from Life Technologies. aData was analyzed using GraphPad Prism 5 and reported values represent mean±SEM for at least two separate experiments performed in triplicate.
In this well-studied model system for evaluating small molecule inhibition of Hh signaling, addition of an exogenous Hh agonist (recombinant Hh ligand or small molecule) results in a characteristic increase in Gli1 mRNA expression. Concomitant incubation with a pathway inhibitor reduces Gli1 expression. […] In addition, several compounds were evaluated for their anti-proliferative effects in primary Hh-dependent medulloblastoma cells isolated from conditional patched knockout (Math1-Cre-ER; Ptc^fl/fl, MERP) mice. […] Finally, each of these analogues was evaluated for its ability to inhibit proliferation in human umbilical vein […] cells (HUVECs). In vivo angiogenesis is dependent on endothelial cell proliferation; therefore, the inhibition of HUVEC proliferation is commonly utilized as an early stage in vitro model of anti-angiogenic activity.

[3] = tested on: hedgehog (Hh) signaling pathway; details: background; cited from earlier work
BCRP = target: T1, BCRP (Homo sapiens, UniProt Q9UNQ0); details: read-out: IC50 BCRP inhibition; cited from earlier work
T1 construct: expressed in transfected cells; host or cells: Madin Darby canine kidney cells (MDCK)
T1 sequence (Q9UNQ0 1-655): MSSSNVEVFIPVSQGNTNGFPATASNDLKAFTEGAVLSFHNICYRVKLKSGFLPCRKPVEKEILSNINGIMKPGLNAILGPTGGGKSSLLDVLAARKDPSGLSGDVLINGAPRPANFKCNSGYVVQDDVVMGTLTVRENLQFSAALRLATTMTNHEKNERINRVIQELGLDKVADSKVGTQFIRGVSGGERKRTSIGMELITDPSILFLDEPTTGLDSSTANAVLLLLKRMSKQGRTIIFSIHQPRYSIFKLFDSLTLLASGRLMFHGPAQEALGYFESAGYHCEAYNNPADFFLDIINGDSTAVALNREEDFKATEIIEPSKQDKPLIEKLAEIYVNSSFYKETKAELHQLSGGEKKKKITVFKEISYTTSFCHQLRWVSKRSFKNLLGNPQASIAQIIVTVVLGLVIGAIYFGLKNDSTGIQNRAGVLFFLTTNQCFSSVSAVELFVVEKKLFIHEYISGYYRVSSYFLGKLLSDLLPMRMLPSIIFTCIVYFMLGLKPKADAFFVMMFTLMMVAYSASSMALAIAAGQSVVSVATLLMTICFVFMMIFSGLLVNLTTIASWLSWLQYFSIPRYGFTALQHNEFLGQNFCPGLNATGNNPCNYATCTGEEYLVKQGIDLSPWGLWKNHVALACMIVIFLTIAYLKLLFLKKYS

## CCC(C)n1ncn(-c2ccc(N3CCN(c4ccc(OCC5COC(Cn6cncn6)(c6ccc(Cl)cc6Cl)O5)cc4)CC3)cc2)c1=O (stereo not drawn) [ITZ, itraconazole, reference compound]
[1]; 48 h, read-out: IC50 (μM) ASZ, 48 hr incubation
  IC50: 0.14 ± 0.02 µM
[1]; read-out: Hh pathway inhibition ASZ, down-regulation of endogenous Gli1 mRNA
  IC50: 0.14 ± 0.02 µM
[1]; read-out: IC50 (μM) Gli1-ASZs
  IC50: 0.14 ± 0.02 µM
[2]
  GI50: 0.44 ± 0.08 µM
[3]
  IC50: 690 nM
BCRP
  IC50: ~1000 nM
